The series deals with SOD1. Conditions: ASO.

The values that follow come from the OligoGym collection.

“And” between values parts separate entries of the source, which are not always exact repeats. Equal entries are not always repeated. After the bases stand the sugars from the 5' end (letter, count) and the backbone: PS all phosphorothioate, else s phosphorothioate and o phosphodiester by linkage. Methylation of C is not given here. e = 2'-O-(2-methoxyethyl) (MOE); k = constrained ethyl (cEt); d = 2'-deoxy (DNA)

“AGTGTTTAATGTTTATC (sugars ekekddddddddkekee, linkages s1 o2 s9 o2 s2)”: the target mRNA inhibition is, setting by setting: (A431, 0.062 µM) 52%; (A431, 0.185 µM) 68%; (A431, 0.556 µM) 79%; (A431, 1.667 µM) 88%; (A431, 5 µM) 89%; (A431, 15 µM) 91%. Further, the target mRNA inhibition runs as follows: (SH-SY5Y, 0.062 µM) 38%; (SH-SY5Y, 0.185 µM) 49%; (SH-SY5Y, 0.556 µM) 61%; (SH-SY5Y, 1.667 µM) 83%; (SH-SY5Y, 5 µM) 81%; (SH-SY5Y, 15 µM) 84%.

“CCACCTTTGCCCAAGTC (sugars e3 k2 d7 k2 e3, PS)” came in with a target mRNA inhibition (HepG2, 3 µM) of 91%.

On to “TTAATACCCATCTGTGA (sugars e2 k2 d9 k2 e2, PS)”, for which, for the setting “HepG2, 5 µM”, the target mRNA inhibition is 26%.

Regarding “GGATACATTTCTACAGC (sugars e4 d9 k2 e2, linkages s1 o3 s9 o1 s2)”, the target mRNA inhibition came out at 0% (A431, 0.062 µM); 1% (A431, 0.185 µM); 13% (A431, 0.556 µM); 28% (A431, 1.667 µM); 42% (A431, 5 µM); 55% (A431, 15 µM). The target mRNA inhibition was 10% (SH-SY5Y, 0.062 µM); 3% (SH-SY5Y, 0.185 µM); 23% (SH-SY5Y, 0.556 µM); 35% (SH-SY5Y, 1.667 µM); 77% (SH-SY5Y, 5 µM); 78% (SH-SY5Y, 15 µM).

Sequence “TGCCATACAGGGTTTTT (sugars e2 k2 d9 k2 e2, PS)” displayed a target mRNA inhibition (HepG2, 5 µM) of 22%.

On to “AATCTTCCAAGTGATCATAA (sugars e5 d10 e5, PS)”, for which the target mRNA inhibition (HepG2, 5 µM) came to 4%.

Turning to “GTGCCATACAGGGTTTT (sugars e3 k2 d7 k2 e3, PS)”, the target mRNA inhibition (HepG2, 3 µM) is 7%.

Consider “CAGTCAGTCCTTTAATGCTT (sugars e5 d10 e5, PS)”, for which the target mRNA inhibition (HepG2, 5 µM) was 35% and 29%.

On to “CAAGTCATCTGCTTTTT (sugars e3 k2 d7 k2 e3, PS)”, for which the target mRNA inhibition (HepG2, 3 µM) came out at 42%.

Where the note is “HepG2, 4 µM”, “GGTTCCGAGGACTGCAACGG (sugars e5 d10 e5, PS)” registered a target mRNA inhibition of 35%.

As to “GGCCTCAGACTACATCC (sugars e2 k2 d8 k2 e3, PS)”, the target mRNA inhibition (HepG2, 4 µM) is 70%.

Turning to “CAGTGTTTAATGTTTAT (sugars e2 k2 d9 k2 e2, PS)”, the target mRNA inhibition (HepG2, 0.1875 µM) is 45%; the target mRNA inhibition (HepG2, 0.75 µM) amounted to 73%; the target mRNA inhibition (HepG2, 3 µM) worked out at 84%; the target mRNA inhibition (HepG2, 4 µM) worked out at 84%; the target mRNA inhibition (HepG2, 5 µM) amounted to 85%; the target mRNA inhibition (HepG2, 12 µM) is 82% and 87%.

On to “TCTGACAAGTTTAATAC (sugars e3 k2 d7 k2 e3, PS)”, for which, where the note is “HepG2, 3 µM”, the target mRNA inhibition worked out at 0%.

“TTACACCACAAGCCAAA (sugars e2 k2 d8 k2 e3, PS)” had a target mRNA inhibition (HepG2, 4 µM) of 60%.

In the case of “GATTACAGTGTTTAATG (sugars e2 k2 d9 k2 e2, PS)”, the target mRNA inhibition (HepG2, 5 µM) turned out to be 61%.

For “AAGTTTAATACCCATCT (sugars e2 k2 d9 k2 e2, PS)”, where the note is “HepG2, 5 µM”, the target mRNA inhibition was determined as 59%.

Regarding “TCTCCAACATGCCTCTC (sugars e3 k2 d7 k2 e3, PS)”, under “HepG2, 3 µM”, the target mRNA inhibition amounted to 10%.

In the case of “AGGATACATTTCTACAG (sugars e2 k2 d8 k2 e3, PS)”, under “HepG2, 4 µM”, the target mRNA inhibition worked out at 60%.

For “ATCTTCAATAGACACATCGG (sugars e5 d10 e5, PS)”, where the note is “HepG2, 5 µM”, the target mRNA inhibition was 16% and 0%.

In the case of “TATTCACAGGCTTGAAT (sugars e3 k2 d7 k2 e3, PS)”, the target mRNA inhibition (HepG2, 3 µM) turned out to be 0%.

“AGACATTTTAACTGAGT (sugars e2 k2 d9 k2 e2, PS)” came in with a target mRNA inhibition (HepG2, 5 µM) of 53%.

Regarding “TTAAGTCTGGCAAAATA (sugars e2 k2 d9 k2 e2, PS)”, the target mRNA inhibition (HepG2, 5 µM) was 42%.

“AATTACACTTTTAAGATTAC (sugars e5 d10 e5, PS)”: the target mRNA inhibition (HepG2, 5 µM) was found to be 1%.

Regarding “AACTATACAAATCTTCC (sugars e3 k2 d7 k2 e3, PS)”, for the setting “HepG2, 3 µM”, the target mRNA inhibition amounted to 28%.

“CAAACCAGCACCCCGTCTCC (sugars e5 d10 e5, PS)” came in with a target mRNA inhibition (HepG2, 4 µM) of 13%.

With “ATTACAGTGTTTAATGT (sugars e3 k2 d7 k2 e3, PS)”, the target mRNA inhibition (HepG2, 3 µM) was determined as 24%.

“ATAATAAGTGCCATACA (sugars e2 k2 d9 k2 e2, PS)” yielded a target mRNA inhibition (HepG2, 5 µM) of 27%.

Sequence “TGAGATCACAGAATCTTCAA (sugars e5 d10 e5, PS)” displayed a target mRNA inhibition (HepG2, 5 µM) of 30%.

Turning to “TATTCACAGGCTTGAAT (sugars e2 k2 d9 k2 e2, PS)”, the target mRNA inhibition (HepG2, 5 µM) turned out to be 11%.

Sequence “AGCAGGATAACAGATGA (sugars e3 k2 d7 k2 e3, PS)” returned a target mRNA inhibition (HepG2, 3 µM) of 45%.

Where the note is “HepG2, 3 µM”, “AGATTACAGTGTTTAAT (sugars e3 k2 d7 k2 e3, PS)” came in with a target mRNA inhibition of 45%.

In turn, “GACTACATCCAAGGGAA (sugars e3 k2 d7 k2 e3, PS)” gave a target mRNA inhibition (HepG2, 3 µM) of 19%.

Consider “TAGGCCAGACCTCCGCGCCT (sugars e5 d10 e5, PS)”, for which, under “HepG2, 4 µM”, the target mRNA inhibition is 33%.

Turning to “TTACTTTCCTTCTGCTC (sugars e3 k2 d7 k2 e3, PS)”, the target mRNA inhibition (HepG2, 3 µM) turned out to be 22%.

Consider “TCTACAGCTAGCAGGAT (sugars e2 k2 d9 k2 e2, PS)”, for which the target mRNA inhibition amounted to 27% (HepG2, 0.1875 µM); 61% (HepG2, 0.75 µM); 85% (HepG2, 3 µM); 83% (HepG2, 4 µM); 96% (HepG2, 12 µM).

“CGAAATTGATGATGCCCTGC (sugars e5 d10 e5, PS)” showed a target mRNA inhibition (HepG2, 4 µM) of 32%.

“GCCCAAGTCATCTGCTT (sugars e3 k2 d7 k2 e3, PS)” showed a target mRNA inhibition (HepG2, 3 µM) of 93%.

As to “TCATCTGCTTTTTCATG (sugars e3 k2 d7 k2 e3, PS)”, the target mRNA inhibition (HepG2, 3 µM) is 71%.

In the case of “CTTCCCCACACCTTCAC (sugars e3 k2 d7 k2 e3, PS)”, the target mRNA inhibition (HepG2, 3 µM) amounted to 29%.

Take “GATTAAAGTGAGGACCT (sugars e3 k2 d7 k2 e3, PS)”: the target mRNA inhibition (HepG2, 3 µM) was determined as 8%.

In turn, “CAGACTACATCCAAGGG (sugars e3 k2 d7 k2 e3, PS)” registered a target mRNA inhibition (HepG2, 3 µM) of 53%.

Turning to “TGGAATCCATGCAGGCC (sugars e3 k2 d7 k2 e3, PS)”, where the note is “HepG2, 3 µM”, the target mRNA inhibition was found to be 12%.

Regarding “GGCGATCCCAATTACACCAC (sugars e5 d8 e7, linkages s1 o3 s10 o3 s2)”, the target mRNA inhibition is, setting by setting: (A431, 0.062 µM) 0%; (A431, 0.185 µM) 9%; (A431, 0.556 µM) 0%; (A431, 1.667 µM) 0%; (A431, 5 µM) 4%; (A431, 15 µM) 0%. Moreover, the target mRNA inhibition is 5% (SH-SY5Y, 0.062 µM); 2% (SH-SY5Y, 0.185 µM); 16% (SH-SY5Y, 0.556 µM); 25% (SH-SY5Y, 1.667 µM); 36% (SH-SY5Y, 5 µM); 61% (SH-SY5Y, 15 µM).

For “CAGTTTCTCACTACAGG (sugars e2 k2 d8 k2 e3, PS)”, under “HepG2, 5 µM”, the target mRNA inhibition was found to be 38%.

As for “GGTCCTGGTTCCGAGGACTG (sugars e5 d10 e5, PS)”, the target mRNA inhibition (HepG2, 4 µM) is 14%.

Consider “TGCAGGCCTTCAGTCAGTCC (sugars e5 d10 e5, PS)”, for which the target mRNA inhibition (HepG2, 5 µM) is 42% and 46%.

In the case of “CAGGATAACAGATGAGT (sugars e2 k2 d9 k2 e2, PS)”, the target mRNA inhibition is, setting by setting: (HepG2, 0.1875 µM) 56%; (HepG2, 0.75 µM) 89%; (HepG2, 3 µM) 93%; (HepG2, 4 µM) 96%; (HepG2, 12 µM) 96%.

As for “TATTGGGCGATCCCAAT (sugars e2 k2 d8 k2 e3, PS)”, the target mRNA inhibition (HepG2, 4 µM) came to 19%.

As to “TGGCAAAATACAGGTCA (sugars e2 k2 d8 k2 e3, PS)”, the target mRNA inhibition (HepG2, 5 µM) amounted to 33%.

For the sequence “AGGTACTTTAAAGCAACTCT (sugars e5 d10 e5, PS)”, the target mRNA inhibition (HepG2, 5 µM) was 36%.

Sequence “GCAGGAGACTACGACGCAAA (sugars e5 d10 e5, PS)” yielded a target mRNA inhibition (HepG2, 4 µM) of 33%.

In the case of “CCTCAGACTACATCCAA (sugars e2 k2 d8 k2 e3, PS)”, the target mRNA inhibition runs as follows: (HepG2, 0.1875 µM) 26%; (HepG2, 0.75 µM) 51%; (HepG2, 3 µM) 77%; (HepG2, 4 µM) 73%; (HepG2, 12 µM) 91%.

“GTGATCATAAATCAGTT (sugars e2 k2 d9 k2 e2, PS)” registered a target mRNA inhibition (HepG2, 5 µM) of 48%.

Turning to “CCGTCTCCGCGACTACTTTA (sugars e5 d10 e5, PS)”, under “HepG2, 4 µM”, the target mRNA inhibition stood at 20%.

For the sequence “ATTCTGACAAGTTTAAT (sugars e3 k2 d7 k2 e3, PS)”, the target mRNA inhibition (HepG2, 3 µM) came to 9%.

On to “CATGCAGGCCTTCAGTCAGT (sugars e5 d10 e5, PS)”, for which, under “HepG2, 5 µM”, the target mRNA inhibition was 37% and 33%.

Regarding “TGAAACAGACATTTTAACTG (sugars e5 d10 e5, PS)”, for the setting “HepG2, 5 µM”, the target mRNA inhibition worked out at 0%.

In the case of “AGCAACTCTGAAAAAGTCAC (sugars e5 d10 e5, PS)”, the target mRNA inhibition (HepG2, 5 µM) was 14%.

As for “TCATTGAAACAGACATT (sugars e3 k2 d7 k2 e3, PS)”, the target mRNA inhibition (HepG2, 3 µM) was 10%.

As for “GGCCTCAGACTACATCC (sugars e2 k2 d9 k2 e2, PS)”, the target mRNA inhibition amounted to 4% (HepG2, 0.1875 µM); 50% (HepG2, 0.75 µM); 68% (HepG2, 3 µM); 76% (HepG2, 4 µM); 86% (HepG2, 12 µM).

Take “TAATGTTTATCAGGATA (sugars e2 k2 d8 k2 e3, PS)”: the target mRNA inhibition was found to be 48% (HepG2, 0.1875 µM); 78% (HepG2, 0.75 µM); 91% (HepG2, 3 µM); 90% (HepG2, 4 µM); 95% (HepG2, 12 µM).

Consider “GACAAAGAAATTCTGACAAG (sugars e5 d10 e5, PS)”, for which the target mRNA inhibition (HepG2, 5 µM) worked out at 8%.

“AAATACAGGTCATTGAA (sugars e2 k2 d8 k2 e3, PS)”: the target mRNA inhibition (HepG2, 5 µM) stood at 28%.
